# According to patent publication US20190151283A1, “NON-STEROIDAL SELECTIVE GLUCOCORTICOID RECEPTOR AGONISTIC MODULATORS (SEGRAMs) AND USES THEREOF” (ASSOCIATION POUR LA RECHERCHE À L'IGBMC (ARI), priority 2017, published 2019):
# Molecular target: T1, glucocorticoid receptor (GR) (Mus musculus, UniProt P06537)
# T1 construct: RNA transcripts were then extracted from mouse ears; from tissue; host or cells: ear skin of Balb/C mice (in vivo topical treatment)
# T1 sequence (P06537 1-792): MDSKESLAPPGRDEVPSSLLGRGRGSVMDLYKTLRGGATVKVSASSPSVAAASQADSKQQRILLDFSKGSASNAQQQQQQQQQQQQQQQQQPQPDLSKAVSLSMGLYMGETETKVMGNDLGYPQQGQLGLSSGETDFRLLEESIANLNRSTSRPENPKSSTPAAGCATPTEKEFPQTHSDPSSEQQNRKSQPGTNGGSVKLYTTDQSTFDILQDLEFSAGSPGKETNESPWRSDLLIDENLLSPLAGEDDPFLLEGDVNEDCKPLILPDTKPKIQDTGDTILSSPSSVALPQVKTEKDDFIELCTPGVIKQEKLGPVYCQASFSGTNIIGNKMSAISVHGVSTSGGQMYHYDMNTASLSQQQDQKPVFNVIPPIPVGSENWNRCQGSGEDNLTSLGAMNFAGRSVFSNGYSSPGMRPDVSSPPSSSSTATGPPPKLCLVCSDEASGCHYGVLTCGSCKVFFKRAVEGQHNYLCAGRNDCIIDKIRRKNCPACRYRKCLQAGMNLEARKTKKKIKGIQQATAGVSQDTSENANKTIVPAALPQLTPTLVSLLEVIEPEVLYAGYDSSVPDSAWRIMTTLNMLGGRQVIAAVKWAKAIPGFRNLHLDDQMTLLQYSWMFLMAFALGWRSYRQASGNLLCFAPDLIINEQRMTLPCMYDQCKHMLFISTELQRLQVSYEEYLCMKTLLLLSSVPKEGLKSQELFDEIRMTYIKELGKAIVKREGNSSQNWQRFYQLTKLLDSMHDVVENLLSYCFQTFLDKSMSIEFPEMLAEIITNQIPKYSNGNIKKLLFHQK
# Experiment: GR transcriptional functions in mouse ears after topical 18-hour treatment (q-RT-PCR)
# Format: in vivo
# Protocol: RNA transcripts were then extracted from mouse ears and the transcripts of 4 genes were analyzed by q-RT-PCR: • (i) the directly GR-transactivated gene of the mTOR inhibitor REDD1, • (ii) the GR-directly transrepressed gene of keratin 5 (K5) and • (iii) the GR-indirectly “tethered” transrepressed genes of interleukin-1β (IL-1β) and interleukin-6 (IL-6), both being activated in presence of 12-O-tetradecanoylphorbol-13-acetate (TPA).
# [1] = topical 18 h, 1 nmole/cm^2, q-RT-PCR, vs Vehicle
structure (smiles),measurement,setting,value
"COc1ccc(F)cc1C(C)(C)CC(O)(CNc1ccc2c(c1)COC2=O)C(F)(F)F (racemic) [CpdX, 5-[4-(5-fluoro-2-methoxyphenyl)-2-hydroxy-4-methyl-2-(trifluoromethyl)pentylamino]-isobenzofuran-1(3H)-one]","GR functions induced (direct transactivation, direct transrepression, indirect tethered transrepression)","in vivo transcriptional analyses, 1 nmole/cm^2",selectively exhibits an indirect tethered transrepression activity
same,direct transrepression of the K5 gene (relative RNA expression),[1],unchanged
same,transactivation of the REDD1 gene (relative RNA expression),[1],unchanged
